These results are taken from paper PMC6722389, “Cryo-EM structure of the Ustilago maydis kinesin-5 motor domain bound to microtubules” (Journal of Structural Biology, 2019).

One assay concerns the target T1, UmKin5 (Mycosarcoma maydis, UniProt A0A0D1DQH0).
T1 construct: gene UMAG_10678; motor domain residues 73-456 without N-terminal extension; N-terminal His6 tag removed by TEV protease; E. coli BL21*(DE3); monomeric
The assay is described as follows: cryo-EM structure. Particulars: microtubule-bound (bovine brain tubulin, paclitaxel); 5 mM AMPPNP, 1 mM MgCl2, pH 6.8; nucleotide binding site; overall resolution 4.3 Å, motor ~5-7 Å.

A further assay addresses T2, N+UmKin5 (Mycosarcoma maydis, UniProt A0A0D1DQH0).
T2 construct: gene UMAG_10678; motor domain with 72-residue N-terminal extension, residues 1-456; N-terminal His6 tag removed by TEV protease; E. coli BL21*(DE3); monomeric
The assay is described as follows: cryo-EM structure. Particulars: microtubule-bound (bovine brain tubulin, paclitaxel); 5 mM AMPPNP, 1 mM MgCl2, pH 6.8; nucleotide binding site; overall resolution 4.5 Å, motor ~5-7 Å.

`Nc1ncnc2c1ncn2[C@@H]1O[C@H](COP(=O)(O)OP(=O)(O)NP(=O)(O)O)[C@@H](O)[C@H]1O` [AMPPNP]: the cryo-EM structure result is recorded as “Strong density is visible at the nucleotide binding site consistent with the presence of AMPPNP” on UmKin5 and “Both constructs bound the MT lattice in the presence of the non-hydrolysable ATP analogue AMPPNP” at N+UmKin5.
